Measured values: patent publication US6723716B1, “7-acylamino-3-heteroarylthio-3-cephem carboxylic acid antibiotics and prodrugs thereof” (Essential Therapeutics, Inc., priority 1999, dated 2004)
≈ marks a conversion by molar mass, not a printed value.

Columns and labels:
E. coli ATCC25992 = experiment: Broth microdilution MIC (NCCLS); format: cell-based; conditions: Escherichia coli
Description: (§1) Compounds were evaluated for antimicrobial activity against a panel of bacterial strains using a broth microdilution assay performed as recommended by the NCCLS (1). The minimum inhibitory concentration (MIC) was defined as the lowest concentration of drug which prevented the growth of the bacteria.
(§2) For this primary panel, the assay was performed in Mueller-Hinton Broth (MHB) with a final bacterial inoculum of 5×10^5 CFU/mL (from an early-log phase culture) and a final volume of 100 μL. Control drugs, including imipenem, vancomycin, Penicillin G, dicloxacillin (vs. MSSA ATCC29213 only), and new compounds were prepared at a concentration equivalent to 2-fold the desired final concentration. Dilution of compounds were prepared directly in the plates by serial 2-fold dilution using a multichannel pipette. Positive and negative growth control were included in each plate.
(§3) The bacterial inocula were prepared as follows. For each strain one isolated colony was used to inoculate a volume of 8 mL of Mueller-Hinton broth and these cultures were incubated overnight (20 h) at 35° C. in a shaking incubator. At the exception of Enterococcus strains, culture were then diluted 1:10 and allowed to grow for an additional one hour at 35° C. in a shaking incubator. The inocula were prepared by diluting the early log-phase (1 h) cultures 1:1000 with fresh Mueller-Hinton broth. E. faecium and E. faecalis were prepared by diluting overnight cultures 1:333 and 1:666, respectively, with fresh Mueller-Hinton broth. A volume of 50 μL of the inocula was added to each well. […] The exact inocula were determined by applying 10 μL of 10-fold serial dilution of the bacterial suspensions on TSA. After overnight incubation at 35° C., colony forming units were manually counted.
(§4) Microtiter plates were incubated during 24 h at 35° C. and were read using a microtiterplate reader (Molecular Devices) at 650 nm as well as by visual observation using a microtiterplate reading mirror.

E. faecalis VanB (Van^R) = experiment: Broth microdilution MIC (NCCLS); format: cell-based; conditions: Enterococcus faecalis
Description: as §1, §2, §3, §4

E. faecium ATCC 35667 = experiment: Broth microdilution MIC (NCCLS); format: cell-based; conditions: Enterococcus faecium, ATCC35667
Description: as §1, §2, §3, §4

E. faecium VanA (Van^R) = experiment: Broth microdilution MIC (NCCLS); format: cell-based; conditions: Enterococcus faecium
Description: as §1, §2, §3, §4

[1] = test system: S. aureus ATCC 13709 (Meth^S); experiment: Broth microdilution MIC (NCCLS); format: cell-based; conditions: Staphylococcus aureus, ATCC13709, S. aureus ATCC 13709 (Meth^S); read-out: MIC
Description: as §1, §2, §3, §4

[2] = test system: S. aureus ATCC 33593 (Meth^R); experiment: Broth microdilution MIC (NCCLS); format: cell-based; conditions: Staphylococcus aureus, ATCC33593
Description: as §1, §2, §3, §4

[3] = test system: S. aureus PC1 (Meth^S)(lac^+); experiment: Broth microdilution MIC (NCCLS); format: cell-based; conditions: Staphylococcus aureus
Description: as §1, §2, §3, §4

[4] = test system: S. aureus Spain #356 (Meth^R); experiment: Broth microdilution MIC (NCCLS); format: cell-based; conditions: Staphylococcus aureus, 24 h
Description: as §1, §2, §3, §4

[5] = test system: S. haemolyticus 05 (Meth^R); experiment: Broth microdilution MIC (NCCLS); format: cell-based; conditions: Staphylococcus haemolyticus
Description: as §1, §2, §3, §4

S. aureus ATCC29213 = experiment: Human serum binding effect: MIC with and without human serum; format: cell-based, Staphylococcus aureus; conditions: 1:1 human serum:MHB
Description: The approximate measurement of the degree of binding of the compound to human serum proteins can be achieved by determination of the effect of the addition of human serum to the medium in which the MIC values against a selected bacterial strain is determined. The ratio of the MIC value obtained in presence of added human serum to the MIC value determined without serum addition was used as a measure of serum binding and the results of such determination are presented below in Table 2.
In addition to the standard MIC determination described above, the staphylococcal strain ATCC29213 is also tested in a ratio 1:1, human serum:MHB to obtain a preliminary estimate of the bioactivity of test compounds in serum: The assay was performed in Human Serum and Mueller-Hinton Broth (HSMHB) with a final bacterial inoculum of 1×10^6 CFU/mL (from an early-log phase culture) and a final volume of 100 μL. Control drugs, including imipenem, vancomycin, dicloxacillin, and new compounds were prepared in double-concentrated Mueller-Hinton broth at a concentration equivalent to 4-fold the desired final concentration. Dilution of compounds were prepared directly in the plates by serial 2-fold dilution in double-concentrated Mueller-Hinton using a multichannel pipette. Positive and negative growth controls were included in each plate. […] The inoculum was prepared by diluting the early log-phase (1 h) culture 1:100 with fresh double-concentrated Mueller-Hinton broth. A volume of 25 μL of the inoculum was added to each well. […] The exact inoculum was determined by applying 10 μl of 10-fold serial dilution of the bacterial suspension on TSA. After overnight incubation at 35° C., colony forming units were manually counted.

E. faecalis ATCC 29212 = experiment: Broth microdilution MIC (NCCLS); format: cell-based; conditions: Enterococcus faecalis, ATCC29212
Description: as §1, §2, §3, §4

P. aeruginosa ATCC 27853 = experiment: Broth microdilution MIC (NCCLS); format: cell-based; conditions: Pseudomonas aeruginosa, ATCC27853
Description: as §1, §2, §3, §4

[6] = test system: S. aureus 76 (Meth^R)(lac^+); experiment: Broth microdilution MIC (NCCLS); format: cell-based; conditions: Staphylococcus aureus
Description: as §1, §2, §3, §4

S. aureus ATCC 29213 = experiment: Broth microdilution MIC (NCCLS); format: cell-based; conditions: Staphylococcus aureus, ATCC29213; S. aureus ATCC 29213; Mueller-Hinton broth, 24 h at 35° C.; read-out: MIC
Description: as §1, §2, §3, §4

E. faecium A491 (Amp^R) = experiment: Broth microdilution MIC (NCCLS); format: cell-based; conditions: Enterococcus faecium
Description: as §1, §2, §3, §4

[7] = test system: S. aureus Col (Meth^R)(lac^−); experiment: Broth microdilution MIC (NCCLS); format: cell-based; conditions: Staphylococcus aureus
Description: as §1, §2, §3, §4

[8] = In vitro stability of compounds in rat serum; format: in vitro ADME; conditions: Table 2 data
Description: In general, compounds from the class of 7-acylamino-3-heteroarylthio-3-cephem carboxylic acids have higher chemical reactivity and lower stability towards chemical or enzymatic decomposition than most typical cephalosporins. […] Results shown in Table 2 represent percentage loss of the initial amount of cephalosporin compound upon 60 min incubation in rat serum.
Procedure for measuring degree of degradation of cephalosporin compounds in rat serum was as follows:
Fresh control rat serum (heparinized and stored frozen) is preincubated at 37° C. for 15 min in a shaking water bath. pH is measured using test strips. 25 μL of a 2 mg/mL solution cephalosporin compound (in water) of is then added to each matrix to make 1000 μL. Solutions were incubated at 37° C. 100 ul of solution was taken out at time=0, 15, 30, and 60 min post dose and added 200 μL 4% trichloroacetic acid, vortexed, and centrifuged for 10 min at 14,000 rpm in an Eppendorf microcentrifuge. 25 μL of each supernatant was injected onto HPLC. Experiment was repeated using 25 μL of a 0.2 mg/mL cephalosporin compound. Degradation is measured as the percentage of HPLC peak area at time t relative to peak area at time 0.
HPLC conditions: Beckman Ultrasphere C18 column. 5 u. 4.6 mm×25 cm. 1 mL/min of 95% 0.1 M ammonium acetate, pH 6, 5% ACN going to 75% buffer/organic over 20 min. UV monitored at 254 and 280 nm.

[9] = test system: S. aureus ATCC 13709 (Smith diffuse); experiment: Murine lethal bacteremic peritonitis (septicemia) efficacy; format: in vivo, mice; conditions: Staphylococcus aureus, ATCC13709, sc, read-out: Efficacy in murine septicemia % survival
Description: 10 mice/group were injected intraperitoneally with 2.98×10^7 cfu S. aureus ATCC 13709 (Smith diffuse) and treated at 0 and 2 hrs post-challenge with serial two-fold doses of new cephalosporin antibiotic, imipenem and vancomycin subcutaneously in order to determine the ED50. Male Swiss-Webster mice weighing originally 24.2-26.1 g were obtained from Charles Rivers Labs, Hollister, Calif. Mice were housed 10 per cage and given free access to water and mouse chow.
Staphylococcus aureus ATCC 13709 (Smith diffuse) was grown overnight at 37° C. in Brain-heart Infusion broth (BHIB). The following morning, it was subcultured to fresh BHIB and incubated for 4-5 h at 37° C. The log-phase growth cells were washed once with physiological saline and adjusted to the desired concentration by correlation of absorbency at OD 600 nm with predetermined plate counts (NCCLS, 1994). The cell suspension was mixed with an equal volume of sterile 14% hog-gastric mucin (2). Inoculum was kept in an ice bath until used (<1 h).
Mice were challenged via an injection of 0.5 mL bacterial suspension intraperitoneally. The bacterial challenge was 2.98×10^7 cfu/mouse.
Imipenem (Primaxin IV; Lot 7294A), vancomycin (Vancocin; Lot 8MU60W), and new cephalosporin antibiotic were prepared by serial two-fold dilutions to concentrations of 0.078-0.005 mg/mL, 1.2-0.075 mg/mL, 0.3-0.02 mg/mL, 0.3-0.02 mg/mL and 0.3-0.02 mg/mL respectively in sterile water (1). All antibiotics were administered subcutaneously in 0.1 mL volumes at 0 and 2 hours post-challenge. Concentrations of all compounds are based on the weight of the bioactive ingredients.
The 50% effective dose (ED50) was calculated by the probit method (3) utilizing a program entitled Probit (Nycomed-Salutar).

Row | Structure (SMILES) | MIC (E. coli ATCC25992) [µg/mL] | MIC (E. faecalis VanB (Van^R)) [µg/mL] | MIC (E. faecium ATCC 35667) [µg/mL] | MIC (E. faecium VanA (Van^R)) [µg/mL] | MIC [1] [µg/mL] | MIC [2] [µg/mL] | MIC [3] [µg/mL] | MIC [4] [µg/mL] | MIC [5] [µg/mL] | Human serum binding effect (ratio of MIC value determined with and without human serum added) (S. aureus ATCC29213) | MIC (E. faecalis ATCC 29212) [µg/mL] | MIC (P. aeruginosa ATCC 27853) [µg/mL] | MIC [6] [µg/mL] | MIC (S. aureus ATCC 29213) [µg/mL] | further results
1 | NCCSc1nnc(SC2=C(C(=O)O)N3C(=O)[C@@H](NC(=O)/C(=N\O)c4nc(N)sc4Cl)[C@H]3SC2)s1 [Cmpd 1, (7R)-7-[(Z)-2-(2-amino-5-chlorothiazol-4-yl)-2-(hydroxyimino)acetamido]-3-(2-aminoethylthio-1,3,4-thiadiazol-5-ylthio)-3-cephem-4-carboxylic acid] | 0.5 (≈ 0.84 µM) | 0.25 (≈ 0.42 µM) | 0.5 (≈ 0.84 µM) | 2 (≈ 3.36 µM) | 0.13 (≈ 0.218 µM) | 1 (≈ 1.68 µM) | 0.25 (≈ 0.42 µM) | 1 (≈ 1.68 µM) | 1 (≈ 1.68 µM) | 64 | – | – | – | – | –
2 | Cc1nc(CSCCN)c(SC2=C(C(=O)O)N3C(=O)[C@@H](NC(=O)/C(=N\O)c4cccc(N)n4)[C@H]3SC2)s1 [Cmpd 2, (7R)-7-[(Z)-2-(2-aminopyrid-6-yl)-2-(hydroxyimino)acetamido]-3-[4-(2-aminoethylthiomethyl)-2-methyl-1,3-thiazol-5-ylthio]-3-cephem-4-carboxylic acid] | 32 (≈ 55 µM) | 1 (≈ 1.72 µM) | 4 (≈ 6.88 µM) | 4 (≈ 6.88 µM) | 0.13 (≈ 0.223 µM) | – | 0.25 (≈ 0.43 µM) | 2 (≈ 3.44 µM) | 4 (≈ 6.88 µM) | 4 | 0.25 (≈ 0.43 µM) | > 32 | 4 (≈ 6.88 µM) | 0.25 (≈ 0.43 µM) | –
3 | NCCSCc1csc(SC2=C(C(=O)O)N3C(=O)[C@@H](NC(=O)/C(=N\O)c4cccc(N)n4)[C@H]3SC2)n1 [Cmpd 4, (7R)-7-[(Z)-2-(2-aminopyrid-6-yl)-2-(hydroxyimino)acetamido]-3-[4-(2-aminoethylthiomethyl)-1,3-thiazol-2-ylthio]-3-cephem-4-carboxylic acid] | 4 (≈ 7.05 µM) | 0.5 (≈ 0.881 µM) | 0.25 (≈ 0.44 µM) | – | 0.13 (≈ 0.229 µM) | 1 (≈ 1.76 µM) | 0.13 (≈ 0.229 µM) | 2 (≈ 3.52 µM) | – | 3 | 0.25 (≈ 0.44 µM) | – | 2 (≈ 3.52 µM) | 0.13 (≈ 0.229 µM) | –
4 | NCCSc1nccnc1SC1=C(C(=O)O)N2C(=O)C(NC(=O)/C(=N\O)c3cccc(N)n3)C2SC1 (centres unmarked) [Cmpd 7] | 4 (≈ 7.29 µM) | 4 (≈ 7.29 µM) | 8 (≈ 14.6 µM) | 8 (≈ 14.6 µM) | 0.25 (≈ 0.456 µM) | 2 (≈ 3.65 µM) | 0.25 (≈ 0.456 µM) | 2 (≈ 3.65 µM) | 2 (≈ 3.65 µM) | – | 2 (≈ 3.65 µM) | > 32 | 2 (≈ 3.65 µM) | 0.25 (≈ 0.456 µM) | MIC (E. faecium A491 (Amp^R)): > 32 µg/mL; MIC [7]: 2 µg/mL (≈ 3.65 µM)
5 | NCCSCc1ccncc1SC1=C(C(=O)O)N2C(=O)[C@@H](NC(=O)/C(=N\O)c3nsc(N)n3)[C@H]2SC1 [Cmpd 27, (7R)-7-[(Z)-2-(5-amino-1,2,4-thiadiazol-3-yl)-2-(hydroxyimino)acetamido]-3-[4-(2-aminoethylthiomethyl)pyrid-3-ylthio]-3-cephem-4-carboxylic acid] | – | – | – | – | 0.25 (≈ 0.44 µM) | – | – | – | – | 4 | – | – | – | – | stability of compounds in rat serum [8]: improved stability
6 | C[C@@H](O)[C@H]1C(=O)N2C(C(=O)O)=C(SCCN=CN)C[C@H]12 [Imipenem, reference compound] | – | – | – | – | 0.008 (≈ 0.0267 µM) | – | – | – | – | 2 | – | – | – | – | responders at 0.039 mg/kg ([9]; dose 0.039 mg/kg s.c. at 0 and 2 h post-challenge): 20%; responders at 0.078 mg/kg ([9]; dose 0.078 mg/kg s.c. at 0 and 2 h post-challenge): 40%; responders at 0.156 mg/kg ([9]; dose 0.156 mg/kg s.c. at 0 and 2 h post-challenge): 100%; responders at 0.312 mg/kg ([9]; dose 0.312 mg/kg s.c. at 0 and 2 h post-challenge): 100%; responders at 0.625 mg/kg ([9]; dose 0.625 mg/kg s.c. at 0 and 2 h post-challenge): 100%
